We go through one compound from patent publication US20180038865A1, “CD9 AS A THERAPEUTIC TARGET FOR HEMATOLOGIC MALIGNANCIES” (The Chinese and Knowledge Transfer Services, priority 2016, published 2018).

Structures are written as SMILES.

What all share (assay): Apoptosis assay (Annexin V/7-AAD), vincristine, monoculture or stromal co-culture
Common to all, as to assay type: cell-based, human

The subject of one test is Reh cells. The settings on record: vincristine 12.5 nM, 3 days; CD9low Reh. As for the experimental part:
(§1) […]: In vitro and in vivo effects of CD9 antibody on chemosensitivity of B-ALL cells. (FIG. 4A) B-ALL cell lines were treated with vincristine (VCR, 12.5 nM) for 3 days in monoculture or stromal co-culture. Apoptosis was monitored by Annexin V/7-AAD staining (n=4). (FIG. 4B) 697 cells were treated with VCR (12.5 nM) in stromal co-cultures for 3 days, in the presence of control IgG or anti-CD9 (ALB6, 10 μg/mL), and measured for apoptosis (n=4). (FIG. 4C) NOD/SCID mice were transplanted with 697 cells and treated with IgG alone, anti-CD9 alone (ALB6, 20 μg/mouse), IgG+VCR (0.8 mg/kg) or anti-CD9 + VCR. Antibodies and VCR were given twice a week for 2 weeks. Animal survival was analyzed (4-5 mice/group). Data are means±SEM. Statistics: (A and B) two-tailed, paired Student's t-test, (FIG. 4C) log-rank test. *P<0.05, **P<0.01.
(§2) B-ALL cell lines (1×10^5) were cultured with or without monolayers of BM stromal cells, and exposed to 10 μg/mL of control IgG or CD9 antibody (ALB6). Cells were then treated with vincristine (12.5 nM; Sigma Aldrich) for 3 days at 37° C. Apoptotic cell death was monitored using the Annexin V/7-AAD Apoptosis Detection Kit (BD Biosciences).

The test system of a further test is RS4;11. The settings on record: vincristine 12.5 nM, 3 days. As for the experimental part:
as §1, §2

The test system of a further test is 697 cells. The settings on record: vincristine 12.5 nM, 3 days. As for the experimental part: as §1, §2
A further test has as its system SUP-B15. The conditions noted are these: vincristine 12.5 nM, 3 days. As for the experimental part: as §1, §2

For the compound `CC[C@]1(O)C[C@H]2CN(CCc3c([nH]c4ccccc34)[C@@](C(=O)OC)(c3cc4c(cc3OC)N(C=O)[C@H]3[C@@](O)(C(=O)OC)[C@H](OC(C)=O)[C@]5(CC)C=CCN6CC[C@]43[C@@H]65)C2)C1` [vincristine], in the test with Reh cells, the “protective effect of stromal cells against vincristine-mediated apoptotic cell death” value is on record as “absent”. For the same compound, the “vincristine-mediated apoptotic cell death, stromal co-culture vs monoculture” value in the test with RS4;11, in the test with 697 cells and with SUP-B15 was “reduced” each time.
